Source: US10519177B2, “Heterocyclic compounds and uses thereof” (Plexxikon Inc., priority 2013, dated 2019)
Read-outs that look alike come from different tables or passages of the source.

What was measured:
bromodomain = assay: at least one of the bromodomain cell assays of Example 57; type: cell-based; details: at least one of the bromodomain cell assays described in Example 57; read-out: IC50 in at least one of the bromodomain cell assays
MV-4-11 cells = assay: Oncology cell growth assay MV-4-11 (CellTiter Glo); type: cell-based; details: Homo sapiens, MV4-11, 72 h, read-out: Cell activity (IC50 μM) MV-4-11 3d-Growth
How it was run: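 MV-4-11 AML cells (MLL-AF4), 3000 per well, exposed to 8-point 1:3 compound titration from 10 μM top concentration (0.2% DMSO) for 72 h. Viability by CellTiter Glo luminescence, normalized to DMSO controls; pIC50 from four-parameter curve fit.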

BRD4-BD12 (1-477) = BRD4-BD12 (1-477) (Homo sapiens (Human), UniProt O60885); assay: Alphascreen binding assay BRD4-BD12; details: BRD4(1 2) H4; read-out: Biochemical activity (IC50 μM) BRD4(1 2) H4
How it was run: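 First, compound was preincubated 1 h at room temperature with the His-tagged BRD4 protein (BD1 44-164 or tandem BD12 1-477) and acetylated H4 peptide. Next, donor and acceptor beads were added at 7.5 μg/ml final. After 30 min, AlphaScreen emission was recorded.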

Row | SMILES | IC50 (bromodomain) | IC50 (MV-4-11 cells) | IC50 (BRD4-BD12 (1-477)) | IC50 (MV-4-11 cells; MV-4-11, 3d growth)
1 | Cc1noc(C)c1-c1cnc2c(-c3cnn(CC(F)(F)F)c3)cn([C@@H](C)c3ccc(F)cc3)c2c1 [P-0354, 4-[1-[(1S)-1-(4-fluorophenyl)ethyl]-3-(1-(2,2,2-trifluoroethyl)pyrazol-4-yl]pyrrolo(3,2-b)pyridin-6-yl]-3,5-dimethyl-isoxazole] | < 10000 nM | < 1 µM | < 1 µM | –
2 | Cc1noc(C)c1-c1cnc2c(Br)c[nH]c2c1 [P-0263, 4-(3-bromo-1H-pyrrolo[3,2-b]pyridin-6-yl)-3,5-dimethyl-isoxazole] | < 10000 nM | – | < 1 µM | –
3 | CC[C@@H](c1ccccn1)n1cc(-c2ccc(C(=O)O)c(Cl)c2)c2ncc(-c3c(C)noc3C)cc21 [P-1028, 2-chloro-4-[6-(3,5-dimethylisoxazol-4-yl)-1-[(1S)-1-(2-pyridyl)propyl]pyrrolo[3,2-b]pyridin-3-yl]benzoic acid] | – | – | < 1 µM | < 1 µM
4 | Cc1noc(C)c1-c1cnc2c(I)cn(Cc3ncccc3F)c2c1 [P-0947, 4-[1-[(3-fluoro-2-pyridyl)methyl]-3-iodo-pyrrolo[3,2-b]pyridin-6-yl]-3,5-dimethyl-isoxazole] | – | – | < 1 µM | < 1 µM
5 | Cc1noc(C)c1-c1ccc2c(-c3cnn(CC(F)(F)F)c3)cn(C(c3ccccc3)c3ccccn3)c2c1 (centres unmarked) [P-1046, 3,5-dimethyl-4-[1-[phenyl(2-pyridyl)methyl]-3-[1-(2,2,2-trifluoroethyl)pyrazol-4-yl]indol-6-yl]isoxazole] | – | – | < 1 µM | < 1 µM
6 | CC[C@H](c1ccccn1)n1cc(-c2ccc(C(=O)OC)cc2)c2ncc(-c3c(C)noc3C)cc21 [P-0959, methyl 4-[6-(3,5-dimethylisoxazol-4-yl)-1-[(1R)-1-(2-pyridyl)propyl]pyrrolo[3,2-b]pyridin-3-yl]benzoate] | – | – | < 1 µM | < 1 µM
7 | COc1cc(-c2cn(C(c3ccccn3)C3CCCC3)c3cc(-c4c(C)noc4C)cnc23)ccc1C(=O)O (centres unmarked) [P-1048, 4-[1-[cyclopentyl(2-pyridyl)methyl]-6-(3,5-dimethylisoxazol-4-yl)pyrrolo[3,2-b]pyridin-3-yl]-2-methoxy-benzoic acid] | – | – | < 1 µM | < 1 µM
8 | COC(=O)c1ccc(-c2cn(Cc3ccccc3F)c3cc(-c4c(C)noc4C)cnc23)cc1 [P-0925, methyl 4-[6-(3,5-dimethylisoxazol-4-yl)-1-[(2-fluorophenyl)methyl]pyrrolo[3,2-b]pyridin-3-yl]benzoate] | – | – | < 1 µM | < 1 µM
9 | Cc1noc(C)c1-c1ccc2c(-c3cnc(C4CC4)nc3)cn(C(c3ccccc3)c3ccccn3)c2c1 (centres unmarked) [P-1042, 4-[3-(2-cyclopropylpyrimidin-5-yl)-1-[phenyl(2-pyridyl)methyl]indol-6-yl]-3,5-dimethyl-isoxazole] | – | – | < 1 µM | < 1 µM
10 | Cc1cc(-c2cn(C(c3ccccn3)C3CCCC3)c3cc(-c4c(C)noc4C)cnc23)ccc1C(=O)O (centres unmarked) [P-1038, 4-[1-[cyclopentyl(2-pyridyl)methyl]-6-(3,5-dimethylisoxazol-4-yl)pyrrolo[3,2-b]pyridin-3-yl]-2-methyl-benzoic acid] | – | – | < 1 µM | < 1 µM
11 | COC(=O)c1ccc(-c2cn(Cc3ncccc3F)c3cc(-c4c(C)noc4C)cnc23)cc1 [P-0948, methyl 4-[6-(3,5-dimethylisoxazol-4-yl)-1-[(3-fluoro-2-pyridyl)methyl]pyrrolo[3,2-b]pyridin-3-yl]benzoate] | – | – | < 1 µM | < 1 µM
12 | Cc1ccc(-c2cn(C(c3ccccc3)c3ccccn3)c3cc(-c4c(C)noc4C)cnc23)cc1 (centres unmarked) [P-0901, 3,5-dimethyl-4-[1-[phenyl(2-pyridyl)methyl]-3-(p-tolyl)pyrrolo[3,2-b]pyridin-6-yl]isoxazole] | – | – | < 1 µM | < 1 µM
13 | CC[C@@H](c1ccccn1)n1cc(-c2ccc(C3(C(=O)OC)CC3)cc2)c2ncc(-c3c(C)noc3C)cc21 [P-0968, methyl 1-[4-[6-(3,5-dimethylisoxazol-4-yl)-1-[(1S)-1-(2-pyridyl)propyl]pyrrolo[3,2-b]pyridin-3-yl]phenyl]cyclopropanecarboxylate] | – | – | < 1 µM | < 1 µM
14 | CC[C@@H](c1ccccn1)n1cc(-c2ccc(C(=O)O)cc2F)c2ncc(-c3c(C)noc3C)cc21 [P-1025, 4-[6-(3,5-dimethylisoxazol-4-yl)-1-[(1S)-1-(2-pyridyl)propyl]pyrrolo[3,2-b]pyridin-3-yl]-3-fluoro-benzoic acid] | – | – | < 1 µM | < 1 µM
15 | Cc1noc(C)c1-c1cnc2c(-c3ccc(C(=O)O)cc3)cn([C@@H](c3ccccn3)C3CC3)c2c1 [P-0987, 4-[1-[(R)-cyclopropyl(2-pyridyl)methyl]-6-(3,5-dimethylisoxazol-4-yl)pyrrolo[3,2-b]pyridin-3-yl]benzoic acid] | – | – | < 1 µM | < 1 µM
16 | COC(=O)C1(c2ccc(-c3cn([C@@H](C)c4ccccn4)c4cc(-c5c(C)noc5C)cnc34)cc2)CC1 [P-0942, methyl 1-[4-[6-(3,5-dimethylisoxazol-4-yl)-1-[(1S)-1-(2-pyridyl)ethyl]pyrrolo[3,2-b]pyridin-3-yl]phenyl]cyclopropanecarboxylate] | – | – | < 1 µM | < 1 µM
17 | Cc1noc(C)c1-c1cnc2c(-c3ccc(C4(C(=O)O)CC4)cc3)cn(Cc3ccccn3)c2c1 [P-0964, 1-[4-[6-(3,5-dimethylisoxazol-4-yl)-1-(2-pyridylmethyl)pyrrolo[3,2-b]pyridin-3-yl]phenyl]cyclopropanecarboxylic acid] | – | – | < 1 µM | < 1 µM
18 | Cc1noc(C)c1-c1cnc2c(-c3ccc(CC(=O)O)cc3)cn(Cc3ccccn3)c2c1 [P-0973, 2-[4-[6-(3,5-dimethylisoxazol-4-yl)-1-(2-pyridylmethyl)pyrrolo[3,2-b]pyridin-3-yl]phenyl]acetic acid] | – | – | < 1 µM | < 1 µM
19 | CC(=O)Nc1ccc(-c2cn([C@@H](C)c3ccccn3)c3cc(-c4c(C)noc4C)cnc23)cc1 [P-0984, N-[4-[6-(3,5-dimethylisoxazol-4-yl)-1-[(1S)-1-(2-pyridyl)ethyl]pyrrolo[3,2-b]pyridin-3-yl]phenyl]acetamide] | – | – | < 1 µM | < 1 µM
20 | COC(=O)c1ccc(-c2cn(C(c3ccccn3)C3CCC3)c3cc(-c4c(C)noc4C)cnc23)cc1 (centres unmarked) [P-1011, methyl 4-[1-[cyclobutyl(2-pyridyl)methyl]-6-(3,5-dimethylisoxazol-4-yl)pyrrolo[3,2-b]pyridin-3-yl]benzoate] | – | – | < 1 µM | < 1 µM
21 | Cc1noc(C)c1-c1ccc2c(-c3ccc(C(=O)O)c(Cl)c3)cn(C(c3ccccc3)c3ccccn3)c2c1 (centres unmarked) [P-1047, 2-chloro-4-[6-(3,5-dimethylisoxazol-4-yl)-1-[phenyl(2-pyridyl)methyl]indol-3-yl]benzoic acid] | – | – | < 1 µM | < 1 µM
22 | COc1ncc(-c2cn(C(c3ccccc3)c3ccccn3)c3cc(-c4c(C)noc4C)ccc23)cn1 (centres unmarked) [P-1039, 4-[3-(2-methoxypyrimidin-5-yl)-1-[phenyl(2-pyridyl)methyl]indol-6-yl]-3,5-dimethyl-isoxazole] | – | – | < 1 µM | < 1 µM
23 | Cc1ccc(-c2cn(C(c3ccccc3)c3ccccn3)c3cc(-c4c(C)noc4C)ccc23)cn1 (centres unmarked) [P-1041, 3,5-dimethyl-4-[3-(6-methyl-3-pyridyl)-1-[phenyl(2-pyridyl)methyl]indol-6-yl]isoxazole] | – | – | < 1 µM | < 1 µM
